Data set [1] has as its system metastases of MDAY-D2 cells. Description: liver metastases of MDAY-D2 cells (histology). It is filed as in vivo, mice. As to conditions: 500 μg/day; preliminary results. From the text: (§1) In order to examine the ability of vanadyl compounds to reduce tumor formation, growth and metastases, a specific animal model which allows investigation of all of these processes in the same animal was chosen. This model involves the injection of a metastatic haematopoietic cell line, MDAY-D2, into mice subcutaneously. These cells form a tumor at the site of injection and its size can be easily determined. In addition, these cells metastasize to the liver and metastases can be detected histologically after day 17 to 19. This model provides a very sensitive and reproducible approach to investigate the effect of vanadyl compounds on tumor growth and metastases.
The metastatic liver was obtained from an animal 24 days following the administration MDAY-D2 cells. The nodules are quite numerous and large.
Livers were removed from animals treated as described above and prepared for histological examination. FIG. 16 compares liver sections from untreated (C), orthovanadate (VO)(500 μg/day) and vanadyl sulphate (VS)(500 μg/day) treated animals. Nodules are identified with an arrow.

The next data set relates to MDAY-D2 cells. Description: viability of MDAY-D2 cells. It is filed as cell-based, mouse. As to conditions: 0-50 μM, 48 hours, three forms compared. The procedure:
Fos and jun activity are also required for cellular proliferation in many tumor cell lines. Accordingly, the effect of orthovanadate on adherent cells and cell suspensions were examined. MDAY-D2 (a mouse lymphoid cell line grown in suspension) and HTB14 cells (an adherent human primary astrocytoma cell line) were incubated in media containing 0-50 μM orthovanadate for 48 hours. The cells were harvested and the number of viable cells determined.
Three different forms of vanadyl compounds were examined for their effect on viability of cancer cell lines. MDAY-D2 cells were incubated in media containing 0-50 μM orthovanadate, vanadyl sulphate, or vanadyl hydroperoxide for 48 hours. The cells were harvested and the number of viable cells determined. […] Although there were slight differences in sensitivity, the overall cell death was similar.

The test system of the next data set is K562. Description: MTT cytotoxicity assay, K562. Type of data set: cell-based, human. As to conditions: K562, 72 hours. On the procedure: (§2) The relative cytotoxicity of various compounds on tumor cell lines was investigated as follows. Cytotoxicity was measured by the MTT microculture tetrazolium colorimetric assay for all cell lines. The relative cytotoxicity of Na3 VO4 and VOSO4 was investigated using the following tumor cell lines: P388(WT) murine leukemia, P388 (ADR) murine leukemia, Lewis murine lung, MCF7 (WT) human breast, […] human lung, K562 human erythroleukemia, A431 human epidermal, LS180 human colon and SK-OV-3 human ovarian. The relative cytotoxicity of doxorubicin, Na3 VO4 and VOSO4 was investigated using the following tumor cell lines: P388(WT) murine leukemia, P388 (ADR) murine leukemia, MCF7(WT) human breast and MCF7 (ADR) human breast. The relative cytotoxicity of BMOV, BEOV and naglivan was investigated using the following tumor cell lines: P388(WT) murine leukemia, P388 (ADR) murine leukemia, Lewis murine lung, H460 human lung, K562 human erythroleukemia, and SK-OV-3 human ovarian.
The cells were plated (number of cells/well was different from cell line to cell depending on the dividing rate) in a 96-well microculture plate 24 hours prior to the delivery of the vanadium compounds. […] A blank column (without cells) and a control column (with cells without vanadium) were left. The cells were incubated for 72 hours continuously. An MTT solution was added to each well after this incubation period and the cells were incubated for 4 more hours for the completion of the dyeing process. The medium was removed find DMSO was added to each well. The absorbance of each well was read with a Titertek Multiskan (310C) spectrophotometer at 570 nm. The percentage of the absorbance of each vanadium concentration relative to the control calculated and the value of the 50% growth inhibition concentration (IC50) was obtained from the % control versus concentration plot. Each assay was repeated three times and the reported IC50 values were the mean of these three runs.

For a further data set, the system named is carcinogenesis. As to conditions: dietary; cited from earlier work.
The next data set has as its system H460. Description: MTT cytotoxicity assay, H460. As to conditions: H460, 72 hours. Type of data set: cell-based, human. The procedure: as §2
(§3) The cells were plated (number of cells/well was different from cell line to cell depending on the dividing rate) in a 96-well microculture plate 24 hours prior to the delivery of the vanadium compounds. Serial concentrations of solutions of the test compounds (0.05-100 μM) were delivered to the corresponding wells. A blank column (without cells) and a control column (with cells without vanadium) were left. The cells were incubated for 72 hours continuously. An MTT solution was added to each well after this incubation period and the cells were incubated for 4 more hours for the completion of the dyeing process. The medium was removed find DMSO was added to each well. The absorbance of each well was read with a Titertek Multiskan (310C) spectrophotometer at 570 nm. The percentage of the absorbance of each vanadium concentration relative to the control calculated and the value of the 50% growth inhibition concentration (IC50) was obtained from the % control versus concentration plot. Each assay was repeated three times and the reported IC50 values were the mean of these three runs.

A further data set deals with MDAY-D2 tumor. Description: MDAY-D2 tumor growth in vivo, orthovanadate, vanadyl sulphate, vanadyl hydroperoxide (Example 6B). More on the design: species or system mice.
Source text: as §1
In a separate experiment using the same animal model, the effect of orthovanadate, vanadyl sulphate and vanadyl hydroperoxide administration on tumor growth in vivo was examined. On Day 1, 20 mice were injected with 2×10^5 MDAY-D2 cell subcutaneously. The mice were divided into four groups of five mice. At day 5, the animals were injected subcutaneously with 50 μl of water alone or containing 10 mg/ml of orthovanadate, 10 mg/ml of vanadyl sulphate, or 10 mg/ml of vanadyl hydroperoxide. This treatment was continued daily for 16 days. At day 21, the mice were sacrificed and the tumors dissected and weighed.

In the next data set the test system is A431. Description: MTT cytotoxicity assay, A431. As to conditions: A431, 72 hours. It is filed as cell-based, human. On the procedure: as §2
(§4) The cells were plated (number of cells/well was different from cell line to cell depending on the dividing rate) in a 96-well microculture plate 24 hours prior to the delivery of the vanadium compounds. Serial concentrations of solutions of the test compounds (0.05-100 μM) were delivered to the corresponding wells. […] The absorbance of each well was read with a Titertek Multiskan (310C) spectrophotometer at 570 nm. […]

Another data set relates to SK-OV-3. Description: MTT cytotoxicity assay, SK-OV-3. It is filed as cell-based, human. As to conditions: SK-OV-3, 72 hours. On the procedure: as §2, §3
The test system of a further data set is MCF7 (ADR). Description: MTT cytotoxicity assay, MCF7 (ADR). It is filed as cell-based, human. As to conditions: MCF7 (ADR), 72 hours; read-out: IC50 Value. On the procedure: as §2, §3
Another data set relates to LS180. Description: MTT cytotoxicity assay, LS180. As to conditions: LS180, 72 hours. It is filed as cell-based, human. On the procedure: as §2, §4
For the next data set, the system named is P388 (ADR). Description: MTT cytotoxicity assay, P388 (ADR). Type of data set: cell-based, murine. As to conditions: P388 (ADR), 72 hours; read-out: IC50 Value. On the procedure:
as §2, §3

Another data set relates to MCF7 (WT). Description: MTT cytotoxicity assay, MCF7 (WT). It is filed as cell-based, human. As to conditions: MCF7 (WT), 72 hours; read-out: IC50 Value. The procedure: as §2, §3
The next data set relates to P388 (WT). Description: MTT cytotoxicity assay, P388 (WT). Type of data set: cell-based, murine. As to conditions: P388 (WT), 72 hours; read-out: IC50 Value. On the procedure:
as §2, §3

A further data set deals with Lewis lung. Description: MTT cytotoxicity assay, Lewis lung. Type of data set: cell-based, murine. As to conditions: 72 hours. On the procedure: as §2, §3
Another data set relates to synoviocytes. Description: synoviocyte proliferation, dye exclusion (Example 24). It is filed as cell-based. On the procedure: The effect of vanadium compounds on synoviocyte proliferation was investigated as follows. Synoviocytes were plated on six well plates and treated with orthovanadate or vanadyl sulphate and incubated for 24 hours. The cells were removed and the number of viable cells determined by the dye exclusion method.

A further data set deals with fos. Description: fos / c-fos mRNA expression in chondrocytes (Northern blot). It is filed as cell-based, bovine. As to conditions: stimulus alone; H2 O2 30, 60 and 90 minutes; IL-1, PMA or AA (3 μM) 1 hour. The procedure:
The cytokine interleukin 1 (IL 1) has been used to identify the intermediate second messengers which regulate the expression of fos and jun.
In order to elucidate this possibility, the effect of DPI on fos and jun mRNA levels induced by IL 1 was investigated. RNA from chondrocytes treated with IL 1 in the presence and absence of DPI were analyzed by Northern blot analysis using either fos or collagenase cDNA probes.
Since superoxides are rapidly converted to hydrogen peroxide in the cell by superoxide dismutase, whether hydrogen peroxide could mimic the effect of IL 1 in the induction of fos expression was investigated. RNA was extracted from chondrocytes (Kandel et al. supra) treated with H2 O2 for 30, 60 and 90 minutes and examined by Northern blot analysis using a fos cDNA probe.
Bovine articular chondrocytes were isolated and plated as previously described (Kandel R. A. et al. Biochim. Biophys. Acta. 1053, 130-134, 1990). […] The amount of ^3 H-AA liberated into the supernatant was determined. To measure PGE2 production, chondrocytes were incubated for 6 hours in Ham's F12 medium, either alone or with IL 1 or PMA. […] In order to examine the expression of c-fos and c-jun, chondrocytes were incubated for 1 hour in the presence of IL-1, PMA or AA (3 μM). Chondrocytes were washed in PBS and the total RNA extracted as previously described (Cruz. et al, 1991, Biochem. J. 277, 327-330). RNA samples were run on formaldehyde agarose gels and transferred to nylon membrane for northern analysis using cDNA probes for c-fos and c-jun.
The RNA was extracted and examined by Northern blot analysis using cDNA probes for c-fos and collagenase.

A further data set deals with cells. Description: cell toxicity of orthovanadate and H2 O2. It is filed as cell-based. As to conditions: 1 mM H2 O2, 24 hours. On the procedure: Orthovanadate was thought in view of the investigations described in Examples 1-3, to react with H2 O2 to form hydroxyl radicals which are extremely toxic. If the orthovanadate induced formation of hydroxyl radicals is responsible for cell toxicity, then adding exogenous H2 O2 should enhance the effects of orthovanadate. Accordingly, cells were incubated in media alone or containing 1 mM H2 O2 or 10 μM orthovanadate or both for 24 hours. The cells were harvested and cell viability determined.

Bounds are passed on as bounds.

Consider `O=S(=O)([O-])[O-].[O]=[V+2]` [vanadyl sulphate], for which the metastases in liver entry in [1] is recorded as “did not have detectable levels of metastases”. In addition, the “killing of MDAY-D2 cells” value with MDAY-D2 cells is “equally effective”. Besides, the IC50 was above 100 µM in the data set on K562; 9.3 µM in the data set on H460; 29.1 µM with A431; 1.9 µM in the data set with SK-OV-3; 31.3 µM in the data set on MCF7 (ADR); 31.9 µM in the data set on LS180. In addition, the half-inhibitory concentration (IC50) in the data set with P388 (ADR) amounted to 29.8 µM; in the data set on MCF7 (WT), 10.5 µM; with P388 (WT), 16.1 µM; in the data set with Lewis lung, 27.3 µM. The “chemically induced mammary carcinogenesis in rats” value in the data set on carcinogenesis was “inhibit”. In addition, in the data set on MDAY-D2 tumor (groups of five, 10 mg/ml, 50 μl daily s.c.), the animal deaths result is “One animal died”. Moreover, in the data set with MDAY-D2 tumor (mouse, in vivo), the “efficacy in reducing tumor growth” value was “less effective”. In the data set with synoviocytes, the cytotoxicity to synoviocytes entry is “cytotoxic to the cells”. Further, in the data set on synoviocytes (25 μM, 24 hours (control 2.6)), the Number of cells is given as 0.2 10^-5. For the same compound, the synoviocyte proliferation result with synoviocytes (24 hours) was “inhibited synoviocyte proliferation”.

`OO` [H2 O2, hydrogen peroxide]: in the data set on fos, the “stimulation of fos / c-fos expression” value is recorded as “stimulates”. Further, in the data set with cells, the “effect on cell toxicity, H2 O2 alone” value is recorded as “small effect”.

(Values after patent publication US5871779A, “Treatment of arthropathies with vanadate compounds or analogues thereof” (Mount Sinai Hospital Corporation, priority 1996, dated 1999).)
